# Experimental data reported in patent publication US11484708B2, “Methods and devices for surgical pre-treatment” (Vomaris Innovations, Inc., priority 2014, dated 2022).
# Key:
# [1] = tested on: HUVEC cells; test: EF-induced elongation of endothelial cells (long:short axis ratio); assay type: cell-based, human; conditions: for long:short axis ratio in EF-treated cells: inhibitor 50 μM, vs control
# Experimental: Tissue culture reagents were obtained from Life Technologies UK. […] Rhodamine-phalloidin (E3478) was obtained from Molecular Probes (Leiden, The Netherlands) and anti-tubulin conjugated with FITC was obtained from Sigma. The HUVEC cell line from ATCC was used prior to passage 10. Dulbecco's modified Eagle's medium (DMEM) with 10% fetal bovine serum (FBS) was used for culture cells and EF exposure experiments.
# HUVEC cells were seeded in a trough formed by two parallel (1 cm apart) strips of glass coverslip (No. 1, length of 22 mm) fixed to the base of the dish with silicone grease. Scratch lines were made perpendicular to the long axis of the chamber with a fine sterile needle and used as reference marks for directed cell migration. Cells were incubated for 24-48 hours (37° C., 5% CO2) before a roof coverslip was applied and sealed with silicone grease. The final dimensions of the chamber, through which current was passed, were 22×10×0.2 mm. Agar-salt bridges not less than 15 cm long were used to connect silver/silver-chloride electrodes in beakers of Steinberg's solution (58 mM NaCl, 0.67 mM KCl, 0.44 mM Ca(NO3)2, 1.3 mM MgSO4, 4.6 mM Trizma base, pH 7.8-8.0), to pools of excess culture medium at either side of the chamber. Field strengths were measured directly at the beginning of, the end of and during each experiment. No fluctuations in field strength were observed. […] (50 μM), the Rho kinase inhibitor Y27632 (50 μM), both Akt and Rho kinase inhibitors (10 μM each) or latrunculin (50 nM) for 1 hour before EF stimulation. […]
# A series of images was taken with an image analyser immediately before EF exposure and at 4, 8 and 24 hours of EF exposure. Cell orientation was quantified as an orientation index (Oi), which is defined as Oi=cos2(α), where α is the angle formed by the long axis of a cell with a line drawn perpendicular to the field lines. […] The significance of this two-dimensional orientation distribution against randomness was calculated using Rayleigh's distribution. A long:short axis ratio was calculated for assessment of elongation.
# [2] = tested on: HUVEC cells; test: EF-induced reorientation of endothelial cells (orientation index Oi); assay type: cell-based, human
# Experimental: HUVEC cells were seeded in a trough formed by two parallel (1 cm apart) strips of glass coverslip (No. 1, length of 22 mm) fixed to the base of the dish with silicone grease. Scratch lines were made perpendicular to the long axis of the chamber with a fine sterile needle and used as reference marks for directed cell migration. Cells were incubated for 24-48 hours (37° C., 5% CO2) before a roof coverslip was applied and sealed with silicone grease. The final dimensions of the chamber, through which current was passed, were 22×10×0.2 mm. Agar-salt bridges not less than 15 cm long were used to connect silver/silver-chloride electrodes in beakers of Steinberg's solution (58 mM NaCl, 0.67 mM KCl, 0.44 mM Ca(NO3)2, 1.3 mM MgSO4, 4.6 mM Trizma base, pH 7.8-8.0), to pools of excess culture medium at either side of the chamber. Field strengths were measured directly at the beginning of, the end of and during each experiment. […] (50 μM), the Rho kinase inhibitor Y27632 (50 μM), both Akt and Rho kinase inhibitors (10 μM each) or latrunculin (50 nM) for 1 hour before EF stimulation. The same concentration of drug was present during EF exposure in a CO2 incubator.
# A series of images was taken with an image analyser immediately before EF exposure and at 4, 8 and 24 hours of EF exposure. Cell orientation was quantified as an orientation index (Oi), which is defined as Oi=cos2(α), where α is the angle formed by the long axis of a cell with a line drawn perpendicular to the field lines. A cell with its long axis parallel to the vector of the EF will have an Oi of −1, and a cell with its long axis exactly perpendicular to the EF vector will have an Oi of +1. […] The significance of this two-dimensional orientation distribution against randomness was calculated using Rayleigh's distribution. A long:short axis ratio was calculated for assessment of elongation.
# [3] = tested on: Human keratinocytes; test: in vitro scratch assay (cell migration); assay type: cell-based
# Excerpt: The in vitro scratch assay is an easy, low-cost and well-developed method to measure cell migration in vitro. The basic steps involve creating a “scratch” in a cell monolayer, capturing images at the beginning and at regular intervals during cell migration to close the scratch, and comparing the images to quantify the migration rate of the cells. Compared to other methods, the in vitro scratch assay is particularly suitable for studies on the effects of cell-matrix and cell-cell interactions on cell migration, mimic cell migration during wound healing in vivo and are compatible with imaging of live cells during migration to monitor intracellular events if desired. In addition to monitoring migration of homogenous cell populations, this method has also been adopted to measure migration of individual cells in the leading edge of the scratch.
# Human keratinocytes were plated under plated under placebo or a LLEC system described herein (labeled “PROCELLERA®”). Cells were also plated under silver-only or zinc-only dressings. After 24 hours, the scratch assay was performed.
# Cell culture—Immortalized HaCaT human keratinocytes were grown in Dulbecco's low-glucose modified Eagle's medium (Life Technologies, Gaithersburg, Md., U.S.A.) supplemented with 10% fetal bovine serum, 100 U/ml penicillin, and 100 μg/ml streptomycin. The cells were maintained in a standard culture incubator with humidified air containing 5% CO2 at 37° C.
# Scratch assay—A cell migration assay was performed using culture inserts (IBIDI®, Verona, Wis.) according to the manufacturer's instructions. Cell migration was measured using time-lapse phase-contrast microscopy following withdrawal of the insert. Images were analyzed using the AxioVision Rel 4.8 software.
# N-Acetyl Cysteine Treatment—Cells were pretreated with 5 mM of the thiol antioxidant N-acetylcysteine (Sigma) for 1 h before start of the scratch assay.
# IGF-1 R inhibition—When applicable, cells were preincubated with 50 nM IGF-1 R inhibitor, picropodophyllin (Calbiochem, Mass.) just prior to the Scratch Assay. […]
# [4] = inhibitor 50 μM, 1 hour before and during EF
compound,measurement,setting,value
1-L-6-hydroxymethyl-chiro-inositol 2-[(R)-2-O-methyl-3-O-octadecylcarbonate] [Akt inhibitor],long:short axis ratio in EF-treated cells,[1],significantly decreased the long:short axis ratio
same,orientation response of cells in an EF,[2]; [4],significantly decreased the orientation response
"COc1cc([C@@H]2c3cc4c(cc3[C@H](O)[C@H]3COC(=O)[C@@H]23)OCO4)cc(OC)c1OC [IGF-1 R inhibitor, picropodophyllin]","increased keratinocyte migration observed with LLEC, in presence of IGF-1 R inhibitor",[3]; 50 nM picropodophyllin just prior to scratch assay,attenuated the increased keratinocyte migration
C/C1=C/C(=O)O[C@@H]2C[C@@H](CC[C@H](C)/C=C\C=C\CC1)O[C@@](O)([C@@H]1CSC(=O)N1)C2 [Latrunculin A],EF-induced elongation response,[1]; latrunculin 50 nM,completely abolished the EF-induced elongation response
same,orientation response of cells in an EF,"[2]; latrunculin 50 nM, P<0.001",suppressed the orientation response significantly
"CC(=O)N[C@@H](CS)C(=O)O [N-Acetyl Cysteine, N-acetylcysteine]","increased keratinocyte migration observed with LLEC, in presence of N-acetyl cysteine","[3]; 5 mM, 1 h pretreatment before scratch assay",failed to reproduce the increased migration
"COc1cc2ncnc(Nc3ccc(Cl)cc3F)c2cc1OC [VEGFR inhibitor, 4-[(4′-chloro-2′-fluoro)phenylamino]-6,7-dimethoxyquinazoline]",orientation response of cells in an EF,[2]; [4],completely abolished the reorientation of cells in an EF
C[C@@H](N)[C@H]1CC[C@H](C(=O)Nc2ccncc2)CC1 [Y27632],long:short axis ratio in EF-treated cells,[1],significantly decreased the long:short axis ratio
catalase,"increased migration triggered by the LLEC, with over-expression of catalase","[3]; HaCaT transfected with AdCatalase, 72 h",attenuated the increased migration
